# No end group written: not given here. *: point of attachment. FITC = O=C1OC2(c3ccc(O)cc3Oc3cc(O)ccc32)c2ccc(NC(=S)*)cc21
# What was measured:
# [1] = test system: LC3-HiBiT reporter in HEK293 cells; test: Autophagy flux assay (LC3-HiBiT reporter), HEK293 cells; type: cell-based, human
# Excerpt: Autophagic flux was quantitatively measured with the Autophagy LC3-HiBiT Reporter Assay System which was purchased from Promega (GA1040) and used according to the manufacturer’s instructions. When autophagy is induced, the cytosolic LC3-I fusion protein is recruited to phagophores where it becomes conjugated to phosphatidylethanolamine to form LC3-II. Upon phagophore membrane elongation and closure to form the mature autophagosome, a significant fraction of tethered LC3 protein becomes captured within the lumen together with various cargo. Subsequently, autophagosomes fuse with lysosomes to form autolysosomes, leading to the ultimate degradation of both cargo and the captured LC3 reporter protein. Thus, changes in the total level of the LC3 reporter protein can be used to monitor changes in autophagic flux. HEK293 cells (ATCC, CRL-1573) stably expressing the LC3-HiBiT reporter were trypsinized from subconfluent culture and seeded in a 10 cm plate at a density of 3.0 × 10^6 per plate. Cells were incubated overnight at 37 °C in 5% CO2. Cells were transfected with FLAG-peptide plasmids in combination with pcDNA or A53T a-syn plasmids. After 24 h, cells were trypsinized and seeded in triplicate in a white flat-bottomed 96-well plate at a density of 20,000 cells per well. Cell medium was replaced the next day with fresh medium containing DMSO, Rapamycin, or Bafilomycin A1 and incubated for 24 h at 37 °C with 5% CO2. 80 µL of Working prewarmed Nano-Glo® HiBiT lytic buffer containing HiBiT substrate and LgBit protein (N3030) were added to each well containing 20 µL of cell medium and left to incubate on a rocker for 10 min. Samples were read using a luminometer with a 480 nm filter with measured RLU being directly proportional to HiBiT-conjugated LC3.
# [2] = test system: A53T a-syn expressing HEK293 cells; test: Cell Titer-Glo cell viability, A53T a-syn expressing cells; type: cell-based, human; settings: for cell viability effect of peptides: A53T a-syn, Supp Figure 1A; for Cell viability: A53T, MG132 10 μM, 72 h; for Effect of MIM motif peptides on cell viability in A53T a-syn expressing cells: Supp Figure 1H
# Description: (§1) Oligonucleotides encoding the specific peptides were synthesized and individually cloned into the pLJM1 nGFP lentiviral vector. HEK293T cells were infected with individual constructs, and cell viability was assessed using Cell Titer-Glo luminescent assay (Promega) at 72 h post infection.
# (§2) Cells were trypsinized from subconfluent cultures as described earlier, suspended in culture media, and then seeded into triplicate wells of a 96-well plate (100 µl/well) at a density of 1.5 × 10^4 cells per well with standard culture conditions of 5% CO2 at 37 °C. Cells were infected with lentivirus expressing peptide at a MOI of 5 for 72 h or transfected with plasmid for 72 h. Cell Titer-Glo reagent was added to each well (30 µL), according to the manufacturer’s protocol and […].
# A53T a-syn = A53T a-syn protein level in HEK293 cells by immunoblot; type: cell-based, human
# Description: Infected or transfected cells were scraped from six-well dishes and lysed with lysis buffer (50 mM Tris-HCl pH 7.4, 1% Nonidet P-40, 150 mM NaCl, 1 mM EDTA, 1× protease inhibitor mixture (Sigma)) for 30 min at 4 °C. The insoluble pellet was removed following a 10,000 rpm spin for 5 min at 4 °C. Lysates were analyzed by SDS-PAGE/immunoblot using 4–20% Mini-PROTEAN Tris-glycine gels (Bio-Rad), transferred to polyvinylidene fluoride (PVDF) membranes, and blocked in 5% milk containing PBS-Tween-20 (0.1%) for 1 h. PVDF membranes were then incubated with specified primary antibodies followed by incubation with horseradish peroxidase-conjugated secondary antibodies (anti-mouse HRP-linked, Cell Signaling, catalog #7076, 1:5000; anti-rabbit HRP-linked, Cell Signaling, catalog #7074, 1:5000) and detected using enhanced chemiluminescence (GE Healthcare). Anti-a-syn antibody (clone 42) was obtained from BD Biosciences (catalog #610787, 1:1000). Anti-LAMP1 antibody was obtained from Abcam (catalog #ab24170, 1:500). Anti-beta-actin antibody was obtained from Cell Signaling (13E5) (catalog #4970, 1:1000). Anti-CD63 antibody was obtained from R&D Systems (catalog #MAB50482-SP, 1:1000).
# [3] = test system: WT a-syn expressing HEK293 cells; test: Cell Titer-Glo cell viability, WT a-syn expressing cells; type: cell-based, human; settings: WT alpha-synuclein; for Cell viability: MG132 10 μM, 72 h; for cell viability effect of peptides: Supp Figure 1A;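 on cell viability effect of peptides: measured without MG132 proteasome inhibitor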
# Description: as §1, §2
# A53T a-syn oligomers = test: Luciferase PCA of A53T a-syn oligomers; type: cell-based, human; settings: for Effect on A53T a-syn oligomers: luciferase PCA, n=3
# Description: as §1
# (§3) Tet-off HEK293 cells stably expressing split luciferase-a-syn constructs and tet-off parent HEK293 cell lines were maintained in DMEM supplemented with 10% FBS and 1% pen/strep/glutamine. […] Cells were trypsinized from subconfluent culture and seeded in a 96-well plate at a density of 15,000 cells per well. Cells were incubated overnight at 37 °C in 5% CO2. Cells were transfected with GFP-peptide plasmids. After 6 h of incubation, 20 µL of cell medium was transferred to a black flat-bottomed 96-well plate. Fifty microliters of Working solution (Pierce Gaussia-Firefly Luciferase Dual Assay Kit, Thermo Scientific, 16181) were added into each well containing cell medium. Immediately after adding the reagent, samples were read using a luminometer with a 480 nm filter.
# Parent HEK293 cells = test: Cell Titer-Glo cell viability, parent cells; type: cell-based, human; settings: for Cell viability: MG132 10 μM, 72 h; for cell viability effect of peptides: Supp Figure 1A;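 on cell viability effect of peptides: measured without MG132 proteasome inhibitor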
# Description: as §1, §2
# WT a-syn oligomers = test: Luciferase PCA of WT a-syn oligomers; type: cell-based, human; settings: for Oligomers %: WT oligomers, luciferase activity; for Effect on WT a-syn oligomers: luciferase PCA
# Description: as §1, §3
# [4] = test system: PDE dopaminergic neurons of A30P a-syn C. elegans; test: C. elegans PDE neurite length assay; type: in vivo
# Description: C. elegans strains were grown and maintained under standard conditions at 22–23 °C [66]. BZ555 [dat-1p::gfp] was obtained from the C. elegans Genetics Center (CGC; University of Minnesota, St Paul, MN, USA), TWH1 ([dat-1p::a-syn(A30P), ges-1p::DsRed]; [dat-1p::gfp]) was obtained by crossing BZ555 with A30P a-syn transgenic animals (kindly provided by Dr. Takeshi Iwatsubo, University of Tokyo)[67].
# The peptide construct (pPD97.78_osm-6p_TagRFP_wpeptide) was obtained by subcloning the following fragments into NheI and SpeI sites of pPD97.78 (A. Fire): NheI-AgeI […] fragment (2.4 kb) obtained by PCR using primer set 5′-[…]-3′ and 5′-[…]-3′ and N2 genomic DNA as a template, AgeI-EcoRI TagRFP fragment obtained by PCR using primer set 5′-gttgaccggt[…]-3′ and 5′-ggcagaattcga[…]-3′, EcoRI-SmaI peptide ([…]) fragment digested from CMV_[…]_worm, SmaI-SpeI unc-54 3′-UTR fragment digested from pPD95.75 (Fire vector). The TagRFP control construct was obtained by replacing the EcoRI-SmaI peptide fragment and SmaI-SpeI unc-54 3′-UTR fragment from pPD97.78_osm-6p_TagRFP_wpeptide, to EcoRI- SpeI unc-54 3′-UTR fragment digested from pPD95.75[68].
# Each plasmid (40 ng/µl) was injected with a co-injection marker, sur-5p::mCherry into TWH1. The animals carrying the extrachromosomal arrays were transferred to new plates, and their progenies were analyzed at the adult stage under a widefield microscope (Zeiss AxioObserver). Pearson Chi-square test was used for statistical analysis.
# [5] = target: T1, purified recombinant CHMP2B (UniProt Q9UQN3 1-213); test: fluorescence polarisation; FITC-peptide constant at 50 nM, CHMP2B serially diluted 1:1 from 30 μM; 50 mM Na phosphate pH 5.5 or 20 mM Na acetate pH 5.5, 0.5 mM TCEP, 0.005% Triton-X-100; 30 min at room temperature; settings: both partners purified
# T1 construct: CHMP2B from the vector pET-DEST42 CHMP2B; eluted as a 26 kDa monomer; Removal of tags is not described; source: E. coli Overexpress C41, inclusion bodies, purified (Ni-NTA in guanidine HCl, dialysis, SEC)
# T1 sequence (Q9UQN3 whole entry): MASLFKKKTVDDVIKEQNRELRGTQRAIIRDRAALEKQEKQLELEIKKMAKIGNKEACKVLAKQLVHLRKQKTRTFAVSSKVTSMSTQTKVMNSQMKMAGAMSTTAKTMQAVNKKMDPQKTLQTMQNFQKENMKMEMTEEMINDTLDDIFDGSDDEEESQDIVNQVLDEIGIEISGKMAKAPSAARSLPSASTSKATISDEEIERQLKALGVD
molecule,measurement,setting,value
CO/C1=C\C(C)=C\[C@@H](C)[C@@H](O)[C@@H](C)C/C(C)=C/C=C/[C@H](OC)[C@@H]([C@@H](C)[C@@H](O)[C@H](C)[C@@]2(O)C[C@@H](O)[C@H](C)[C@@H](C(C)C)O2)OC1=O [bafilomycin A1],Effect on autophagic flux,[1],increases LC3 reporter levels and luminescent signal
CO[C@H]1C[C@@H]2CC[C@@H](C)[C@@](O)(O2)C(=O)C(=O)N2CCCC[C@H]2C(=O)O[C@H]([C@H](C)C[C@@H]2CC[C@@H](O)[C@H](OC)C2)CC(=O)[C@H](C)/C=C(\C)[C@@H](O)[C@@H](OC)C(=O)[C@H](C)C[C@H](C)/C=C/C=C/C=C/1C [rapamycin],Effect on autophagic flux,[1],decreased LC3 reporter levels and luminescent signal
"CHMP2B 1-199: truncated version of CHMP2B (amino acids 1–199), in which the MIM is removed",Effect on cell survival/viability,[2]; A53T a-syn cells,rescues toxicity
same,Effect on A53T a-syn protein level,A53T a-syn,reduction in a-syn
EIERQLKALG [PDpep1.2],Cell viability,[3]; replicate 1,4000
same,Cell viability,[3]; replicate 2,4200
same,Cell viability,[3]; replicate 3,4500
same,cell viability effect of peptides,[3]; replicate 1,13200
same,cell viability effect of peptides,[3]; replicate 2,13400
same,cell viability effect of peptides,[3]; replicate 3,13100
same,cell viability effect of peptides,[2]; replicate 1,14600
same,cell viability effect of peptides,[2]; replicate 2,15600
same,cell viability effect of peptides,[2]; replicate 3,14800
same,Cell viability,[2]; replicate 1,7500
same,Cell viability,[2]; replicate 2,6200
same,Cell viability,[2]; replicate 3,6500
same,Effect of MIM motif peptides on cell viability in A53T a-syn expressing cells,[2]; replicate 1,6674
same,Effect of MIM motif peptides on cell viability in A53T a-syn expressing cells,[2]; replicate 2,6850
same,Effect of MIM motif peptides on cell viability in A53T a-syn expressing cells,[2]; replicate 3,6527
same,Effect on A53T a-syn oligomers,A53T a-syn oligomers,significant reduction in A53T a-syn oligomers
same,A53T a-syn oligomers as measured by luciferase activity,A53T a-syn oligomers; replicate 1,251502
same,A53T a-syn oligomers as measured by luciferase activity,A53T a-syn oligomers; replicate 2,281836
same,A53T a-syn oligomers as measured by luciferase activity,A53T a-syn oligomers; replicate 3,251716
same,Cell viability,Parent HEK293 cells; replicate 1,4500
same,Cell viability,Parent HEK293 cells; replicate 2,5400
same,Cell viability,Parent HEK293 cells; replicate 3,4100
same,cell viability effect of peptides,Parent HEK293 cells; replicate 1,12600
same,cell viability effect of peptides,Parent HEK293 cells; replicate 2,12500
same,cell viability effect of peptides,Parent HEK293 cells; replicate 3,13000
same,Oligomers %,WT a-syn oligomers; column 1,104.991%
same,Oligomers %,WT a-syn oligomers; column 2,81.7556%
same,Oligomers %,WT a-syn oligomers; column 3,72.2892%
same,Oligomers %,WT a-syn oligomers; column 4,74.8709%
same,Oligomers %,WT a-syn oligomers; column 5,62.3924%
same,Effect on WT a-syn oligomers,WT a-syn oligomers,significant reduction in a-syn oligomers
FEELEAQLARLR [TagRFP::peptide],Effect on PDE neurite shortening,[4]; A30P human a-syn,partially rescued
same,Proportion displaying Long PDE neurite length,"[4]; a-Syn (A30P), Marker +, adult",36.95%
same,Proportion displaying Medium PDE neurite length,"[4]; a-Syn (A30P), Marker +, adult",48.43%
same,Proportion displaying Short PDE neurite length,"[4]; a-Syn (A30P), Marker +, adult",14.62%
IERQLKA [PDpep1.1],Cell viability,[3]; replicate 1,4800
same,Cell viability,[3]; replicate 2,4300
same,Cell viability,[3]; replicate 3,4100
same,cell viability effect of peptides,[3]; replicate 1,13800
same,cell viability effect of peptides,[3]; replicate 2,13400
same,cell viability effect of peptides,[3]; replicate 3,12900
same,cell viability effect of peptides,[2]; replicate 1,13600
same,cell viability effect of peptides,[2]; replicate 2,13400
same,cell viability effect of peptides,[2]; replicate 3,12400
same,Cell viability,[2]; replicate 1,6400
same,Cell viability,[2]; replicate 2,6200
same,Cell viability,[2]; replicate 3,6100
same,Effect of MIM motif peptides on cell viability in A53T a-syn expressing cells,[2]; replicate 1,6738
same,Effect of MIM motif peptides on cell viability in A53T a-syn expressing cells,[2]; replicate 2,6300
same,Effect of MIM motif peptides on cell viability in A53T a-syn expressing cells,[2]; replicate 3,6152
same,Effect on A53T a-syn oligomers,A53T a-syn oligomers,significant reduction in A53T a-syn oligomers
same,A53T a-syn oligomers as measured by luciferase activity,A53T a-syn oligomers; replicate 1,261554
same,A53T a-syn oligomers as measured by luciferase activity,A53T a-syn oligomers; replicate 2,321472
same,A53T a-syn oligomers as measured by luciferase activity,A53T a-syn oligomers; replicate 3,271592
same,Cell viability,Parent HEK293 cells; replicate 1,3550
same,Cell viability,Parent HEK293 cells; replicate 2,3700
same,Cell viability,Parent HEK293 cells; replicate 3,3800
same,cell viability effect of peptides,Parent HEK293 cells; replicate 1,12600
same,cell viability effect of peptides,Parent HEK293 cells; replicate 2,12000
same,cell viability effect of peptides,Parent HEK293 cells; replicate 3,12700
same,Oligomers %,WT a-syn oligomers; column 1,106.713%
same,Oligomers %,WT a-syn oligomers; column 2,81.3253%
same,Oligomers %,WT a-syn oligomers; column 3,66.2651%
same,Oligomers %,WT a-syn oligomers; column 4,77.4527%
same,Oligomers %,WT a-syn oligomers; column 5,64.5439%
same,Effect on WT a-syn oligomers,WT a-syn oligomers,significant reduction in a-syn oligomers
"{FITC}-NEEGAPQEGILE (α-synuclein amino acids 103-114; also called a-syn peptide fragment; source: synthetic peptide (LifeTein)) [FITC-labeled a-syn peptide, amino acids 103-114 (NEEGAPQEGILE)]",Kd,[5],640 nM
